The text below walks through data of publication PMC7997411, “Discovery and Optimization of Selective Inhibitors of Meprin α (Part II)” (Pharmaceuticals, 2021).

One experiment concerns the target T1, MMP2 (Homo sapiens, UniProt P08253).
T1 construct: purchased R&D Systems 902-MP
T1 sequence (P08253 110-660): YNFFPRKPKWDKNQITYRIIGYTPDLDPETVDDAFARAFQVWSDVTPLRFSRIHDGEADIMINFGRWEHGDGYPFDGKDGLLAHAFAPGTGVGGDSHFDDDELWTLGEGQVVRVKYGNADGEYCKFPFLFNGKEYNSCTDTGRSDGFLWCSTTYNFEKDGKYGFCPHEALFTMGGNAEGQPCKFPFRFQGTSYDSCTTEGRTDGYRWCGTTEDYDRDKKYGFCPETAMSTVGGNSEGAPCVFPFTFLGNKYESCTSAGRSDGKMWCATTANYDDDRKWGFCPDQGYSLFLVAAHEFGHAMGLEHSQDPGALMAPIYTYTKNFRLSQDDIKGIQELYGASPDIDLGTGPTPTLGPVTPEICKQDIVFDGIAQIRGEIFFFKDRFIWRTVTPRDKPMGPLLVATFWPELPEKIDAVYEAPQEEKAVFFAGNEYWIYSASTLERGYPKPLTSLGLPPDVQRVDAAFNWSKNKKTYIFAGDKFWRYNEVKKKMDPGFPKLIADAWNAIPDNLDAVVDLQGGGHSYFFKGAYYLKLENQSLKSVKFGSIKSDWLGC
The settings on record: cited from earlier work.

In the next experiment the target is T2, ADAM17 (Homo sapiens, UniProt P78536).
T2 construct: purchased R&D Systems 930-ADB
T2 sequence (P78536 215-824): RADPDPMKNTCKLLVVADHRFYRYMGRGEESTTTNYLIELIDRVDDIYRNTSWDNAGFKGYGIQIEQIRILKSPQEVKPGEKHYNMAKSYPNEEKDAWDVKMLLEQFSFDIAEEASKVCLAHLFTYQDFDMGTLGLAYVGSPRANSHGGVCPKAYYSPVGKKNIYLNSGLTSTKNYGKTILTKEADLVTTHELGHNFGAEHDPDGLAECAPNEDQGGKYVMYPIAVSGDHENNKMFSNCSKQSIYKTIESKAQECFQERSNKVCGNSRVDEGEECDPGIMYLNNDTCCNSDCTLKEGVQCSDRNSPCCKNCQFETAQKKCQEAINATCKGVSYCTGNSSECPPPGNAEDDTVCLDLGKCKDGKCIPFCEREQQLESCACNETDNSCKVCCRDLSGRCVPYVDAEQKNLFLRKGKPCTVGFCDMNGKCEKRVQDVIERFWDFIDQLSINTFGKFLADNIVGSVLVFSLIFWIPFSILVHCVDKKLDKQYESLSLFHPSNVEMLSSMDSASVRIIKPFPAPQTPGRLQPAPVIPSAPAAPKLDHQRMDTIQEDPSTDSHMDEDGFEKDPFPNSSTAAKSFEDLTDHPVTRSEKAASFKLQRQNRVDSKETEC
The settings on record: cited from earlier work.

The next experiment addresses T3, MMP13 (Homo sapiens, UniProt P45452).
T3 construct: purchased R&D Systems 511-MM
The settings on record: cited from earlier work.

Another experiment deals with T4, MMP9 (Homo sapiens, UniProt P14780).
T4 construct: purchased R&D Systems 911-MP
T4 sequence (P14780 94-707): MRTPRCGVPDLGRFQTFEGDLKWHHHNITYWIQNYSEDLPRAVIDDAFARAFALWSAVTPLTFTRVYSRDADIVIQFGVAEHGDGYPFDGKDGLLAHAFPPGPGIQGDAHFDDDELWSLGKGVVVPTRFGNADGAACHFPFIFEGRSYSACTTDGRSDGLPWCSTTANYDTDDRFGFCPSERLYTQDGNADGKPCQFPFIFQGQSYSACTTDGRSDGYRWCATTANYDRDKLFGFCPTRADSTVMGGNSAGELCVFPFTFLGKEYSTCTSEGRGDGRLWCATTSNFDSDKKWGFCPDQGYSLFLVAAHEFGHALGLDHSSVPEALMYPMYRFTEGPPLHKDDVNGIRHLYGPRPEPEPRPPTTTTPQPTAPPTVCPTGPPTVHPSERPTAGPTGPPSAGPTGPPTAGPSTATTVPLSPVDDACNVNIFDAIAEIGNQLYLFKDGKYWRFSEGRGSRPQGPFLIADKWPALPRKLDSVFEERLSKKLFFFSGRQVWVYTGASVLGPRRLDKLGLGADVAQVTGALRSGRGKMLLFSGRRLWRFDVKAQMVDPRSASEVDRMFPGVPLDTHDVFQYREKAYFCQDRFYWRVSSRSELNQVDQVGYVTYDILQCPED
Particulars: cited from earlier work.

For experiment [1], the system named is Meprin α. The settings on record: cited from earlier work; for meprin α/β fold selectivity ratio: meprin α over meprin β ref 8.
For a further experiment, the system named is Meprin β. The settings on record: cited from earlier work.
A further experiment has as its target T5, ADAM10 (Homo sapiens, UniProt O14672).
T5 construct: purchased R&D Systems 936-AD
T5 sequence (O14672 214-748): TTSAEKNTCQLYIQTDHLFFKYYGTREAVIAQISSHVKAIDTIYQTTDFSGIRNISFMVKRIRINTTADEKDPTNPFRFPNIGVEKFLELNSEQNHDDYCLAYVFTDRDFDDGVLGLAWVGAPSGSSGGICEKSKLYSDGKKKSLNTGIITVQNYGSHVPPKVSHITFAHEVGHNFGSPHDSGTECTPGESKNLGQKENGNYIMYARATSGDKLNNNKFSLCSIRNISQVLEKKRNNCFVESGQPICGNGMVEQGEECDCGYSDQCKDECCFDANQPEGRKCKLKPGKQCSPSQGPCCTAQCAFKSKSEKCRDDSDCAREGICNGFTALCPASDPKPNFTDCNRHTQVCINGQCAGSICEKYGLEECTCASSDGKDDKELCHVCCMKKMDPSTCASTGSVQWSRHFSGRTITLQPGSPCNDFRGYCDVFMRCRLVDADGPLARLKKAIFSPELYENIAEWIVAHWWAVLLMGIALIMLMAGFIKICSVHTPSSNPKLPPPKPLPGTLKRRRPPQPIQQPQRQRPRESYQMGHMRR
The settings on record: cited from earlier work.

The subject of experiment [2] is MMP-2, MMP-3, MMP-8, MMP-9, MMP-10, MMP-14, ADAM10, and ADAM17. The experiment is described as follows: Selectivity panel of related metzincins. In kind it is biochemical. The settings on record: meprin α vs MMP-2, MMP-3, MMP-8, MMP-9, MMP-10, MMP-14, ADAM10, ADAM17. The procedure:
Both assays followed the same general protocol. 2.5 µL of 2× enzyme solution (20 nM) in assay buffer (10 mM HEPES, 0.001% Brij-35, pH 7.5) were added to solid bottom black 384 plates (Greiner, cat# 789075). Next, test compounds and pharmacological controls were added to corresponding wells using a 384-pin tool device (V&P Scientific, San Diego). After 30 min incubation at RT, the reactions were started by addition of 2.5 µL of 2× solutions of substrate (R&D Systems cat#: ES010, Mca-KPLGL-Dpa-AR-NH2, 20 µM). Reactions were incubated at RT for 2 h, after which the fluorescence was measured using a Perkin Elmer Viewlux multimode microplate imager (λexcitation = 324 nm, λemission = 393 nm). All compounds were tested in 10-point, 1:3 serial dilutions dose-response format starting with highest concentration of 100 µM. IC50 values were determined using non-linear regression analysis using the GraphPad Prism 8.0 suite of programs.
All assays followed the same general protocol. […] Reactions were incubated at RT for 1 h, after which the fluorescence was measured using the Synergy H4 multimode microplate reader (Biotek Instruments) (λexcitation = 324 nm, λemission = 390 nm). […] IC50 values were determined using non-linear regression analysis using the GraphPad Prism 8.0 suite of programs.

The target of experiment [3] is T6, meprin α (Homo sapiens, UniProt Q16819).
T6 construct: Strep-tag; made in house; host or cells: BTI-TN-5B1-4 insect cells (baculovirus, amplified in Sf9)
T6 sequence (Q16819 66-746): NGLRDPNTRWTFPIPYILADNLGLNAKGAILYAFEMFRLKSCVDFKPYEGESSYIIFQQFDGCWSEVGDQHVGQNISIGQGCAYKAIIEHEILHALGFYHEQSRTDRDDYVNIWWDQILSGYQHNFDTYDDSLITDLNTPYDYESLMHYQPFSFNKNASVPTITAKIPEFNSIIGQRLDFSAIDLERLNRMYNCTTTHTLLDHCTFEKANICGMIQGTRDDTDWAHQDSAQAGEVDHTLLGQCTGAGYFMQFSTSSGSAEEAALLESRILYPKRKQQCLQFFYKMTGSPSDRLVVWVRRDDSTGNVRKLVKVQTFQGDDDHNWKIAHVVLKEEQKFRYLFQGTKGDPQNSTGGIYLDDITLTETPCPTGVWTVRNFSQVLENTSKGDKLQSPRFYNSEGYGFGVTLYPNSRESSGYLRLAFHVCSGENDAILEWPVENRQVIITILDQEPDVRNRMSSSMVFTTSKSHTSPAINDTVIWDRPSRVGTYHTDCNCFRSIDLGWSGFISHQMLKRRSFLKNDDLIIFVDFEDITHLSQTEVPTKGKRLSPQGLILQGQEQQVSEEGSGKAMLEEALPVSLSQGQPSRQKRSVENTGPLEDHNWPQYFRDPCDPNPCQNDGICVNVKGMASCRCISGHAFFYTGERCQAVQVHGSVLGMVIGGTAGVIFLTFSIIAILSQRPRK
The experiment in a line: Meprin α assay in a 384-well plate (fluorogenic substrate Mca-YVADAPK-K(Dnp)). It counts as biochemical. The procedure: (§1) Recombinant human meprin α and meprin β were expressed using the Bac-to-Bac expression system (Gibco Life Technologies, Paisley, UK) as described before. Media and supplements were obtained from Gibco Life Technologies. Recombinant Baculoviruses were amplified in adherently growing Spodoptera frugiperda (Sf)9 insect cells at 27 °C in Grace’s insect medium supplemented with 10% fetal bovine serum, 50 units/mL penicillin, and 50 μg/mL streptomycin. Protein expression was performed in 500 mL suspension cultures of BTI-TN-5B1-4 insect cells growing in Express Five SFM supplemented with 4 mM glutamine, 50 units/mL penicillin, and 50 μg/mL streptomycin in Fernbach-flasks using a Multitron orbital shaker (INFORS AG, Bottmingen, Switzerland). Cells were infected at a density of 2 × 10^6 cells/mL with an amplified viral stock at a MOI of ~10. […] Meprins were activated by trypsin, which was removed afterwards by affinity chromatography using a column containing immobilized chicken ovomucoid, a trypsin inhibitor.
(§2) Both assays followed the same general protocol. […] After 30 min incubation at RT, the reactions were started by addition of 5 µL of 2× solutions of substrates (20 µM, meprin α Mca-YVADAPK-K(Dnp), and for meprin β Mca-EDEDED-K(Dnp)).

Another experiment has as its target T7, human meprin β (Homo sapiens, UniProt Q16820).
T7 construct: His-tag; made in house; host or cells: BTI-TN-5B1-4 insect cells (baculovirus, amplified in Sf9)
T7 sequence (Q16820 62-701): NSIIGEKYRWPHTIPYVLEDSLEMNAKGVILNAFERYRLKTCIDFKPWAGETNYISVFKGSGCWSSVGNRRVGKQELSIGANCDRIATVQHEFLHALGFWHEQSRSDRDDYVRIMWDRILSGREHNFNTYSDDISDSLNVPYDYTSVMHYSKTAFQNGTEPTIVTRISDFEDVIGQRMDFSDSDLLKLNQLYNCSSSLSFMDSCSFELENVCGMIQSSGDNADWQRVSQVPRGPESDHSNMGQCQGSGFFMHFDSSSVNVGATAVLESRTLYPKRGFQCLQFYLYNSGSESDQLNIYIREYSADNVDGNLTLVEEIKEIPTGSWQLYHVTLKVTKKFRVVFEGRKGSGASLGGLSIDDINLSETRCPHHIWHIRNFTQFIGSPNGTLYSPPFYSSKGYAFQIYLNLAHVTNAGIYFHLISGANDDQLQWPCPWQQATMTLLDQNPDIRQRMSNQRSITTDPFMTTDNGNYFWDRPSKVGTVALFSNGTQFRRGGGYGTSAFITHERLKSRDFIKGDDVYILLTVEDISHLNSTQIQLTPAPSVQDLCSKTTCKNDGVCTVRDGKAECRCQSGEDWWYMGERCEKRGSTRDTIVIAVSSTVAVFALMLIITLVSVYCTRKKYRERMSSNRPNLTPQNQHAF
The experiment is described as follows: Meprin β assay in a 384-well plate (fluorogenic substrate Mca-EDEDED-K(Dnp)). It counts as biochemical. The settings on record: triplicate, ± SD. The procedure:
as §1, §2

The mark [4] stands for this setting: single value given, at 10 μM ref 11.

In general, IC50 refers to the concentration that gives 50% inhibition.

“And” between values parts separate entries of the source, which are not always exact repeats. Equal entries are not always repeated. Where two headings read alike, the source gives them in different places.

On to `O=C(Cc1c(-c2ccccc2)noc1-c1ccccc1)NO` [2c], for which, on MMP2 (setting [4]), the “MMP2 % activity remaining” value is recorded as 87%. Further, the “ADAM17 % activity remaining” value on ADAM17 (setting [4]) is on record as 62%. Further, the “MMP13 % activity remaining” value at MMP13 (setting [4]) is listed as 80%. For the same molecule, the “MMP9 % activity remaining” value on MMP9 (setting [4]) is 86%. For the same molecule, the results for the IC50 in the experiment on Meprin α [1] and with Meprin β were 0.004 ± 0.001 µM and 0.813 ± 0.001 µM, respectively. Moreover, on ADAM10 (setting [4]), the “ADAM10 % activity remaining” value is on record as 80%.

In the case of `O=C(CN(Cc1ccc2c(c1)OCCO2)Cc1ccc2c(c1)OCCO2)NO` [10e], the figures for the “MMP2 % activity remaining” value at MMP2 (at 10 μM (top) ref 8) and at MMP2 (at 200 μM (bottom) ref 8) were 94% and 65%, respectively. Further, the “ADAM17 % activity remaining” value was 80% at ADAM17 (at 10 μM (top) ref 8) and 41% on ADAM17 (at 200 μM (bottom) ref 8). In addition, the “MMP13 % activity remaining” value on MMP13 (at 10 μM (top) ref 8) was 98%; on MMP13 (at 200 μM (bottom) ref 8), 47%. Moreover, the “MMP9 % activity remaining” value at MMP9 (at 10 μM (top) ref 8) is on record as 91%; at MMP9 (at 200 μM (bottom) ref 8) it was 21%. Besides, the figures for the IC50 with Meprin α [1] and in the experiment with Meprin β were 0.4 ± 0.03 µM and 7.59 ± 0.01 µM, respectively. The “meprin α/β fold selectivity ratio” value in the experiment with Meprin α [1] is 19 fold. Further, the “ADAM10 % activity remaining” value at ADAM10 (at 10 μM (top) ref 8) is 80%; at ADAM10 (at 200 μM (bottom) ref 8), 56%.

As to `O=C(CN(Cc1ccc2c(c1)OCO2)Cc1ccc2c(c1)OCO2)NO` [10d], the “MMP2 % activity remaining” value at MMP2 (at 10 μM (top) ref 8) is on record as 95%; on MMP2 (at 200 μM (bottom) ref 8) it was 26%. The results for the “ADAM17 % activity remaining” value at ADAM17 (at 10 μM (top) ref 8) and at ADAM17 (at 200 μM (bottom) ref 8) were 86% and 57%, respectively. Also, the “MMP13 % activity remaining” value was 86% at MMP13 (at 10 μM (top) ref 8) and 55% at MMP13 (at 200 μM (bottom) ref 8). Besides, the “MMP9 % activity remaining” value at MMP9 (at 10 μM (top) ref 8) is reported as 91%; at MMP9 (at 200 μM (bottom) ref 8), 61%. Further, the figures for the IC50 in the experiment on Meprin α [1] and with Meprin β were 0.16 ± 0.001 µM and 2.95 ± 0.35 µM, respectively. For the same molecule, the “meprin α/β fold selectivity ratio” value with Meprin α [1] is 18 fold. In addition, the “ADAM10 % activity remaining” value on ADAM10 (at 10 μM (top) ref 8) was 86%; at ADAM10 (at 200 μM (bottom) ref 8) it was 61%.

`COc1ccc(-n2c(CSc3ncccn3)nnc2SCC(=O)NO)cc1` [SR19855, N-hydroxy-2-((4-(4-methoxyphenyl)-5-((pyrimidin-2-ylthio)methyl)-4H-1,2,4-triazol-3-yl)thio)acetamide]: the “selectivity over a larger panel of metzincins” value in experiment [2] is recorded as “at least 10 fold”. Besides, on meprin α [3] (Figure 1), the “meprin α/β selectivity (in words)” value is “moderate meprin α/β selectivity”. Also, at meprin α [3] (meprin α over meprin β), the “meprin α/β fold selectivity (ratio of IC50 values)” value is ~ 13 fold and 13 fold. Also, the IC50 against meprin α [3] (triplicate, ± SD) is 1.3 ± 0.1 µM; against human meprin β, 17 ± 3 µM. In addition, the “Meprin α IC50” value on meprin α [3] (triplicate, ± SD) is recorded as “low-micromolar”.

Consider `O=C(Cc1c(-c2ccccc2)n[nH]c1-c1ccccc1)NO` [2e], for which the “MMP2 % activity remaining” value on MMP2 (setting [4]) is on record as 104%. Besides, the “ADAM17 % activity remaining” value on ADAM17 (setting [4]) was 61%. Also, the “MMP13 % activity remaining” value at MMP13 (setting [4]) is on record as 75%. The “MMP9 % activity remaining” value on MMP9 (setting [4]) is recorded as 81%. In addition, the values for the IC50 in the experiment with Meprin α [1] and in the experiment on Meprin β were 0.003 ± 0.001 µM and 0.199 ± 0.001 µM, respectively. The “ADAM10 % activity remaining” value at ADAM10 (setting [4]) was 73%.
